The values below come from patent publication US20120277272A1, “Ethanamine Compounds and Methods of Using the Same” (priority 2008, published 2012).

The target in one series is Human NR1/NR2A channel (Homo sapiens, UniProt Q05586+Q12879). Description: Automated patch clamp (QPatch16) block of NR1/NR2A channel currents in CHO-1H8 cells. In kind it is cell-based. The procedure:
Chinese Hamster Ovary (CHO-KI) cells were transfected with Effectene^R reagent following the manufacturer's instructions. Cells were triply transfected with plasmids pTet-Off, pTRE2-pur hNR1, and pGEN IRES Hyg-hNR2A. Transfection was done in medium containing Ham's F12, 10% FBS, 2 mM L-Glutamine, 200 μM ketamine and 2 μg/ml doxycycline. 24 hours post transfection, cells were split 1:10 into medium in which 200 μM ketamine was replaced with 20 μM MK-801. After an additional 24 hours (48 hours post transfection), antibiotic selection was performed as follows: 1 μg/ml puromycin, 500 μg/ml hygromycin, and 500 μg/ml geneticin (G418). After two weeks in the selection medium (with medium changes every 3-5 days), 15-20 clones developed in the flask. These clones were pooled and cultured for one more week. Cells were then clonally plated in two 96-well plates at 1 cell/well by limiting dilution. After three weeks, cells were trypsinized and each original 96-well plate was divided into two; one plate was cultured in the presence of 2 μg/ml doxycycline and the other was cultured for assay without doxycycline. After three days, the assay plates were screened for functional NMDAR expression by stimulating with 50 μM glycine/100 μM glutamate. Two positive clones were expanded and tested for glutamate dose response with glycine fixed at 30 μM. One clone, CHO-1H8 gave robust, dose-dependent response to glutamate and was selected for further characterization.
For routine culture, CHO-1H8 cells were maintained in Ham's F-12+2 mM L-Glutamine (PAA, E15-817), 10% FBS (Sigma, F7442), 1 μg/mL puromycin (Invitrogen A1113802), 250 μg/mL hygromycin (Invitrogen 10687010), 250 μg/mL geneticin (Invitrogen 11811-098), 1 μg/mL doxycycline (Sigma D9891), and 300 μM of the NMDA-channel blocker (R)-α-amino-6,7-dimethyl-3-(phosphonomethyl)-2-quinolinepropanoic acid (CAS 170847-87-7, Swahn et al., Bioorg. Med. Chem. Lett. 1996, 1635). Cells to be used in functional assay were grown in same medium as above, but with 1 μg/mL doxycycline replaced by 2 μg/mL tetracycline (Sigma T7660) three days before induction. Growth medium was replaced every 2-3 days, i.e. Monday-Wednesday-Friday. For induction of NMDAR expression, CHO-1H8 cells were cultured without doxycycline or tetracycline (but with CAS 170847-87-7) for 48 hours in medium prepared with Tet System-Approved FBS (BD Biosciences). […]
In order to evaluate effects of test compounds as inhibitors of NR1/NR2A channels, the channels were first activated by addition of a NMDAR agonist NMDA (Sigma, M3262) and Glycine (Merck, 3570) to the extracellular bath solution. […] NR1/NR2A currents were recorded for 12 sec after activation with 100 μM NMDA/10 μM Glycine (Icontrol). […]
(In patch-clamp work, channel activity is measured electrically.)

The subject of series [1] is NMDA receptor. Description: NMDA trapping. The format is cell-based. Conditions: Table 4; as described in Mealing et al. 2001. The source says: Trapping data was generated as described in Mealing et al., J. Pharmacol. Exp. Therapeutics 2001, (297/3), 906-914.
The target in series [2] is T1, NMDA receptor.
T1 construct: Mean Ki; Mean Maximum effect
Description: MK801 binding inhibition (NMDA receptor antagonist activity in vitro). The note with it: inhibition of MK801 binding to the NMDA receptor. Here is the method:
NMDA receptor antagonist activity can be measured in vitro by assaying a compound's ability to inhibit binding of the receptor antagonist 10,11-dihydro-5-methyl-5H-dibenzo[a,d]-cyclohepten-5,10-imine (MK801) to the receptor. The method is described by Foster and Wong, Br. J. Pharmacol. 91, 403-409 (1987).
NMDA receptor antagonist activity was measured in vitro by assaying a compound's ability to inhibit binding of the receptor antagonist 10,11-dihdro-5-methyl-5H-dibenzo[a,d]-cyclohepten-5,10-imine (MK801) to the receptor. The method is described by Foster and Wong, Br. J. Pharmacol. 91, 403-409 (1987).

[3] abbreviates: Table 1, read-out: MK801 Binding IC50.
The mark [4] stands for this setting: Table 4, NR1/NR2A currents, cells clamped at −60 mV, activated with 100 μM NMDA/10 μM Glycine, 0.41-33.33 μM compound, read-out: Mean IC50.
[5] abbreviates: Table 3, listed as Ex 8, fumarate salt.

Where a name gives a salt, the structure may show the parent alone. Read-outs that look alike come from different tables or passages of the source. Bounds are passed on as bounds.

Chain of Human NR1/NR2A channel (Q12879 23-1464, other chains not shown): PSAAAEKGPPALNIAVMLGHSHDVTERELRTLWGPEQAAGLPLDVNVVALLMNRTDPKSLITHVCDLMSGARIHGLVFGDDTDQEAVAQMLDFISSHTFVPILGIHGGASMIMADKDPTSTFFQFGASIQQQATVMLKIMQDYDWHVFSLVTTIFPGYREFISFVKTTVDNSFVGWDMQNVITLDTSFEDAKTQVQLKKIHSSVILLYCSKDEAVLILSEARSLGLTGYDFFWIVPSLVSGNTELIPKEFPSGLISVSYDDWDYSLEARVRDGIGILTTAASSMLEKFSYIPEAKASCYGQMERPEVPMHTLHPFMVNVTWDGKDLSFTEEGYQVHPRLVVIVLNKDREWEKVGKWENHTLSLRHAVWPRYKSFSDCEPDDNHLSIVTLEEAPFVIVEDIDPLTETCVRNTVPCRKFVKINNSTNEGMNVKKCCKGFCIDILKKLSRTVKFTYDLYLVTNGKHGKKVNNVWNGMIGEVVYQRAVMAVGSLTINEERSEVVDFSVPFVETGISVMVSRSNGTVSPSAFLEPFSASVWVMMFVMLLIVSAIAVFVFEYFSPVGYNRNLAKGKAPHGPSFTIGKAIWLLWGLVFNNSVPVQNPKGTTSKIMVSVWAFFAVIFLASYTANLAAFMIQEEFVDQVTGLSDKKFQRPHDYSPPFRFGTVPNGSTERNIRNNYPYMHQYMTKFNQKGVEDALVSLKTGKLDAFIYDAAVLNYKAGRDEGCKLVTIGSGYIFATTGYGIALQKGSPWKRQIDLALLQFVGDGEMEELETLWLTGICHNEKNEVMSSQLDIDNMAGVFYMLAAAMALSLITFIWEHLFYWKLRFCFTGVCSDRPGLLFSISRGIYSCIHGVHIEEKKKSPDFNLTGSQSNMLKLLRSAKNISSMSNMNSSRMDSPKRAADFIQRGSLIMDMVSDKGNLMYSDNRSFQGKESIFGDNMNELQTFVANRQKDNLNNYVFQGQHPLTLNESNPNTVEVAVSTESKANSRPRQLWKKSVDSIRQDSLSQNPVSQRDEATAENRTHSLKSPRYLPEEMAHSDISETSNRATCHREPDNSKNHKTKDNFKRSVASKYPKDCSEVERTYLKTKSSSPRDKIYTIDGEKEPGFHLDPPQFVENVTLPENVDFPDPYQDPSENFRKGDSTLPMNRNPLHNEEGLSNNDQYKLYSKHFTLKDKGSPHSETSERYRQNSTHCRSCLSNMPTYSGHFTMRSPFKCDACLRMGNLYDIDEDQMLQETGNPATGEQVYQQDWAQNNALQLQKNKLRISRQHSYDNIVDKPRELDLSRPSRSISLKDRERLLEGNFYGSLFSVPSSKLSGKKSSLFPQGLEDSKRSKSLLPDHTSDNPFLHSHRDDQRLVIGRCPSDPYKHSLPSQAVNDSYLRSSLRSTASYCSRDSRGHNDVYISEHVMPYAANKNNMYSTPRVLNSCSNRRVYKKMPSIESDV

The term IC50 denotes the point on the concentration scale where inhibition reaches its midpoint. The Ki is the equilibrium dissociation constant of an inhibitor or competing ligand from its target. On Human NR1/NR2A channel, `N[C@@H](Cc1ccccn1)c1ccccc1` (single isomer, unassigned) [Example 13, dihydrochloride, reference compound] yielded a 50% inhibitory concentration (IC50) of 6 µM. In the series on NMDA receptor [1], this compound registered a Trapping of 53%. Besides, at NMDA receptor [2] (Table 3), the affinity, expressed as Ki, was 2.9 µM and the “Mean Maximum effect” value is on record as 89%. Further, the IC50 on NMDA receptor [2] (Table 3, read-out: Mean IC50) is 6.6 µM.
By melting point is commonly meant the temperature, or range, at which the solid turns liquid. `CC(C)(c1ccccn1)[C@H](N)c1ccccc1` (as salt: HCl) [Example 2, (R)-2-methyl-1-phenyl-2-(pyridin-2-yl)propan-1-amine] came in with a melting point of 188 °C.
On to `CC(C)(c1ccccn1)[C@H](N)c1cccc(F)c1` [Example 5, (R)-1-(3-fluorophenyl)-2-methyl-2-(pyridin-2-yl)propan-1-amine], for which the IC50 at NMDA receptor [2] (setting [3]) amounted to 5.5 µM.
The compound `CC(C)(c1ccccn1)C(N)c1ccccc1` (racemic) (as salt: hydrochloride) [Example 1, 2-methyl-1-phenyl-2-(pyridin-2-yl)propan-1-amine] gave a melting point of 188 °C.
With `CC(C)(c1ccccn1)C(N)c1cccc(F)c1.O=C(O)/C=C/C(=O)O` (racemic) [Example 9, 1-(3-Fluorophenyl)-2-methyl-2-(pyridin-2-yl)propan-1-amine fumarate salt, racemate], on NMDA receptor [2] (Table 3), the inhibitory constant (Ki) came to 1.3 µM and the “Mean Maximum effect” value came to 83%. Also, the IC50 on NMDA receptor [2] (Table 3, read-out: Mean IC50) worked out at 3.2 µM.
For the compound `N[C@H](Cc1ccccn1)c1ccccc1` (single isomer, unassigned) [Example 14, dihydrochloride, reference compound], half-maximal inhibition on Human NR1/NR2A channel (IC50) required 10 µM.
As for `CC(C)(c1ccccn1)C(N)c1cccc(F)c1` (racemic) [Example 4, 1-(3-fluorophenyl)-2-methyl-2-(pyridin-2-yl)propan-1-amine], the half-inhibitory concentration (IC50) at NMDA receptor [2] (setting [3]) worked out at 3.3 µM.
Regarding `CC(C)(c1ccccn1)C(N)c1ccccc1` (racemic) [Example 1, 2-methyl-1-phenyl-2-(pyridin-2-yl)propan-1-amine], the concentration for half-maximal inhibition (IC50) is 12 µM at NMDA receptor [2] (setting [3]) and 12 µM on NMDA receptor [2] (Table 3, read-out: Mean IC50). This compound also returned a Ki on NMDA receptor [2] (Table 3) of 4.9 µM. The “Mean Maximum effect” value with NMDA receptor [2] (Table 3) is recorded as 75%.
Take `CC(C)(c1ccccn1)C(N)c1cccc(F)c1.O=C(O)/C=C/C(=O)O` (single isomer, unassigned; stereoisomer 2) [Example 11, 1-(3-fluorophenyl)-2-methyl-2-(pyridin-2-yl)propan-1-amine fumarate salt, stereoisomer 2]: on NMDA receptor [2] (Table 3, listed as Ex 11), the Ki was 2.5 µM and the “Mean Maximum effect” value is given as 97%. Further, the IC50 on NMDA receptor [2] (Table 3, listed as Ex 11, read-out: Mean IC50) is 4.1 µM.
`CC(C)(c1ccccn1)[C@@H](N)c1ccccc1` (as salt: HCl) [Example 3, (S)-2-methyl-1-phenyl-2-(pyridin-2-yl)propan-1-amine] returned a melting point of 188 °C.
As to `CC(C)(c1ccccn1)[C@@H](N)c1ccccc1` [Example 3, (S)-2-methyl-1-phenyl-2-(pyridin-2-yl)propan-1-amine], the IC50 on Human NR1/NR2A channel (setting [4]) stood at 3 µM; at NMDA receptor [2] (setting [3]), 35 µM; on NMDA receptor [2] (Table 3, listed as Ex 3, read-out: Mean IC50), 5.7 µM. The compound further came in with a Trapping in the series with NMDA receptor [1] of 39%. At NMDA receptor [2] (Table 3, listed as Ex 3), the affinity corresponds to a Ki of 1.8 µM. The “Mean Maximum effect” value in the series on NMDA receptor [2] (Table 3, listed as Ex 3) was determined as 76%.
On to `CC(C)(c1ccccn1)C(N)c1cccc(F)c1.O=C(O)/C=C/C(=O)O` (single isomer, unassigned; stereoisomer 1) [Example 10, 1-(3-fluorophenyl)-2-methyl-2-(pyridin-2-yl)propan-1-amine fumarate salt, stereoisomer 1], for which, on NMDA receptor [2] (Table 3, listed as Ex 10), affinity was put at a Ki of 15 µM and the “Mean Maximum effect” value is 87%. Moreover, on NMDA receptor [2] (Table 3, listed as Ex 10, read-out: Mean IC50), the 50% inhibitory concentration (IC50) amounted to 25 µM.
For `CC(C)(c1ccccn1)[C@@H](N)c1cccc(F)c1` [Example 6, (S)-1-(3-fluorophenyl)-2-methyl-2-(pyridin-2-yl)propan-1-amine], the IC50 at NMDA receptor [2] (setting [3]) stood at 25 µM.
Turning to `CC(C)(c1ccccn1)[C@@H](N)c1ccccc1` [Example 8, (S)-2-methyl-1-phenyl-2-(pyridine-2-yl)propan-1-amine fumarate salt], at NMDA receptor [2] (setting [5]), the Ki was 3.2 µM and the “Mean Maximum effect” value is 90%. Moreover, the 50% inhibitory concentration (IC50) at NMDA receptor [2] (Table 3, listed as Ex 8, fumarate salt, read-out: Mean IC50) is 5.1 µM.
For the compound `CC(C)(c1ccccn1)[C@H](N)c1ccccc1` [Example 2, (R)-2-methyl-1-phenyl-2-(pyridin-2-yl)propan-1-amine], the IC50 at Human NR1/NR2A channel (setting [4]) is 10 µM; at NMDA receptor [2] (setting [3]) it was 6.4 µM; at NMDA receptor [2] (Table 3, read-out: Mean IC50) it was above 25 µM. Moreover, the Ki on NMDA receptor [2] (Table 3) was above 7.9 µM. In the series on NMDA receptor [2] (Table 3), the “Mean Maximum effect” value is listed as 64%.
